Source: patent US20230293464A1, “TREATMENT OF PANCREATIC DUCTAL ADENOCARCINOMA WITH MIRDAMETINIB” (SpringWorks Therapeutics Inc., priority 2022, published 2023)

Tests used:
[1] = tested on: PDAC cell lines; assay: Autophagic flux, mCherry-EGFP-LC3B autophagy reporter (flow cytometry, confocal imaging); type: cell-based; conditions: panel of PDAC cell lines, 24-hours treatment
Description: Autophagic flux was determined using flow cytometry. […] Live cell imaging was performed using confocal microscopy. FIG. 1D indicates the threshold of fluorescent intensity was set to include puncta and exclude cytosolic green and background fluorescence. Green and red puncta were quantified from FIG. 1C and plotted.

[2] = tested on: PDAC cells; assay: Vacuole formation on apilimod treatment; type: cell-based; conditions: FIG. 3A
Excerpt: Cells were fixed and stained with EEA1 and LAMP1 antibodies and analyzed with confocal microscopy.

| SMILES | autophagic flux [1] | vacuole formation [2] |
| --- | --- | --- |
| O=C(NOC[C@H](O)CO)c1ccc(F)c(F)c1Nc1ccc(I)cc1F (single isomer, unassigned) [mirdametinib] | substantially induced autophagic flux |  |
| Cc1cccc(/C=N/Nc2cc(N3CCOCC3)nc(OCCc3ccccn3)n2)c1 [apilimod] |  | dose-dependent vacuole formation |
